One test deals with L428 cells. Kind of test: XTT cell survival, NUP combined with chemotherapeutic drugs. In kind it is cell-based, human. The conditions noted are these: Bortezomib 0.9 ng/ml, same conditions, data not shown. In general terms: Tetrazolium assays rely on reduction of a dye to a coloured formazan, in cell work by metabolically active cells.
Test [1] relates to B16 melanoma cells in C57BL/6 mice. Briefly: Experimental lung metastasis of B16 melanoma cells. In kind it is in vivo. The conditions noted are these: NUP 20 mg/kg or cisplatin 4 mg/kg, day 0 to day 14, lungs excised day 18. As for the experimental part:
C57BL/6 mice were treated with an intravenous injection of B16 melanoma cells (3*10^5 cells/[…]). […] Control animals received only vehicle. Lungs were excised on day 18. Metastatic nodules are black (FIG. 11).

Procedure for L428 cells: Cell survival was measured by a tetrazolium-formazan XTT assay kit (Beit Haemek) in 96-well plates. […] XTT solution (25 μl) was added, and the plates were again incubated for 4 h at 37° C. Absorbance was read at 450 nm by an ELISA reader.

Turning to `CC(C)C[C@H](NC(=O)[C@H](Cc1ccccc1)NC(=O)c1cnccn1)B(O)O` [Bortezomib], the “Combined effect on cell survival with NUP” value in the test on L428 cells is “additive to NUP and not synergistic”.

With `N.N.[Cl][Pt][Cl]` [cisplatin], the “Number of lung metastatic nodules, single agent” value in test [1] is on record as “reduced the number of lung metastatic nodules”.

The values are drawn from patent US8945632B2, “Methods and compositions for inhibiting the nuclear factor κB pathway” (Ben Gurion University of the Negev R&D Authority, priority 2010, dated 2015).
